These results are taken from US20230212510A1, “METHODS FOR ORGANOIDS PRODUCTION” (CITY OF HOPE, priority 2020, published 2023).

Type in all cases: cell-based, human
Experiment [1] has as its system HMEC organoids in microcontainers. The experiment is described as follows: Interventions to alter organoid contraction kinetics (withdrawing media factors, adding matrix).
Experiment [2] deals with estrogen receptor. The experiment is described as follows: Attempted induction of estrogen receptor expression, immunofluorescence. The conditions noted are these: 25 μM RepSox and 10 μM SB431542 together; drugs maintained, withdrawn, or cells mixed 1:10 with undrugged cells.
Experiment [3] concerns HMEC organoids in microcontainers. The experiment is described as follows: Inhibitor treatment of contractile mammary organoids, contractions counted by time-lapse microscopy. The conditions noted are these: for effect on contractions (FIG. 5H legend): 2 μM. The protocol:
Contraction temporal analysis: Organoid contractions were quantified either by hand or by brightness change analysis, as indicated. For brightness change analysis, time-lapse movies were taken, and the time-derivative of the whole-field image brightness was calculated. Local maxima in the time-derivative were interpreted as contractions and spot-checked by eye.
Contractile function implies the presence of contractility-associated structural proteins. […] The association between contractility and ASMA expression was tested with inhibitor experiments. Contractile organoids were treated with either latrunculin B or jasplakinolide, inhibitors of cytoskeleton dynamics that either promote or inhibit actin polymerization, […]. […] Next, organoids were treated with ML-7, an inhibitor of the smooth muscle myosin light-chain kinase that interacts with ASMA.

The test system is the same in experiment [4]. The experiment is described as follows: Prolactin treatment of organoids, luminal functional differentiation (morphology, Sudan Black).

“Also recorded” adds a separate entry of the source. Like-named read-outs stand apart in the source and are kept apart here.

Take `CC(C)NCC(O)c1ccc(O)c(O)c1` (stereo not drawn) [isoproterenol]: the “effect on contraction kinetics” value in experiment [1] (withdrawn from the media) is “no effect”.

Regarding `CC[C@H](C)[C@@H]1NC(=O)[C@H](Cc2ccc(O)cc2)NC(=O)[C@@H](N)CSSC[C@@H](C(=O)N2CCC[C@H]2C(=O)N[C@@H](CC(C)C)C(=O)NCC(N)=O)NC(=O)[C@H](CC(N)=O)NC(=O)[C@H](CCC(N)=O)NC1=O` [oxytocin], the “effect on contraction kinetics” value in experiment [1] (withdrawn from the media) is reported as “no effect”. In the case of `NC(=O)c1ccc(-c2nc(-c3ccc4c(c3)OCO4)c(-c3ccccn3)[nH]2)cc1` [SB431542], the “estrogen receptor expression by immunofluorescence” value in experiment [2] is “not detected”.

In the case of `C/C1=C/C(=O)O[C@@H]2C[C@@H](CC[C@H](C)/C=C\CC1)O[C@@](O)([C@@H]1CSC(=O)N1)C2` [latrunculin B, Latrunculin B], the “effect on contractions (FIG. 5H legend)” value in experiment [3] is recorded as “prevented contractions”. On to cholera toxin, for which the “effect on contraction kinetics” value in experiment [1] was “no effect”.

Consider `O=S(=O)(c1cccc2c(I)cccc12)N1CCCNCC1` [ML-7], for which the inhibition of contractions result in experiment [3] (2 μM ML-7, FIG. 5I) is recorded as “Partial inhibition”. In addition, the “effect on contractions (FIG. 5I legend)” value in experiment [3] (n=59 organoids) is listed as “prevented contractions”. Take “collagen I: matrix protein added to change the microenvironment”: in experiment [1] (added at 0 to 2 mg/mL), the “effect on contraction kinetics” value is recorded as “no effect”. Regarding `C/C1=C\[C@H](C)C[C@H](C)OC(=O)C[C@H](c2ccc(O)cc2)NC(=O)[C@@H](Cc2c(Br)[nH]c3ccccc23)N(C)C(=O)[C@H](C)NC(=O)[C@@H](C)C1` [jasplakinolide, Jasplakinolide], the “effect on contractions (FIG. 5H legend)” value in experiment [3] was “prevented contractions”. Turning to `Cc1cccc(-c2[nH]ncc2-c2ccc3ncccc3n2)n1` [RepSox], the “estrogen receptor expression by immunofluorescence” value in experiment [2] is “not detected”.

B1: prolactin: hormone treatment tested for evidence of lactation (protein, UniProt P01236 29-227, looked up)
Prolactin: LPICPGGAARCQVTLRDLFDRAVVLSHYIHNLSSEMFSEFDKRYTHGRGFITKAINSCHTSSLATPEDKEQAQQMNQKDFLSLIVSILRSWNEPLYHLVTEVRGMQEAPEAILSKAVEIEEQTKRLLEGMELIVSQVHPETKENEIYPVWSGLPSLQMADEESRLSAYYNLLHCLRRDSHKIDNYLKLLKCRIIHNNNC
With B1, in experiment [4] (presence or absence of prolactin, FIG. 6A), the “organoid morphology with prolactin treatment” value was “no obvious differences; also recorded: no morphological changes”. Besides, the “sudanophilia (Sudan Black, marker of lipophilic secretions)” value in experiment [4] (prolactin treatment, FIG. 6B) is on record as “only evident in a single organoid”.
